Results from patent publication US10829538B2, “Identification of immunogenic MHC class II peptides for immune-based therapy” (THE TRUSTEES OF THE UNIVERSITY OF PENNSYLVANIA, priority 2015, dated 2020).

Tests used:
[1] = test system: HER3 ECD-sensitized CD4+ Th1 cells; assay: Sequential screening of HER3 ECD peptide library: HER3 ECD-sensitized CD4+ Th1 restimulated against peptide-pulsed iDCs, IFN-γ ELISA; assay type: cell-based, human; conditions: for reactivity of CD4+ T cells across donors (IFN-γ secretion): 5-6 subjects with known anti-HER3 ECD reactivity
HLA-DR, DP, DQ = assay: MHC class II promiscuity of CD4+ Th1 responses (HLA-DR, DP, DQ typing of donors); assay type: cell-based, human; conditions: DQ subtypes
[2] = Donor # 15107-26, previously sensitized to HER3 ECD
[3] = Donor # 15107-31, previously sensitized to HER3 ECD
[4] = Donor # 15107-38, previously sensitized to HER3 ECD
[5] = Donor # 26113-03, previously sensitized to HER3 ECD
[6] = Donor # 15107-24, previously sensitized to HER3 ECD

Row | Sequence | reactivity of CD4+ T cells across donors (IFN-γ secretion) [1] | reactivity of CD4+ T cells across donors (IFN-γ secretion) ([1]; listed as HER3(451-465)) | immunogenic CD4+ HER3 ECD peptide identified [1, 2] | immunogenic CD4+ HER3 ECD peptide identified [1, 3] | immunogenic CD4+ HER3 ECD peptide identified [1, 4] | immunogenic CD4+ HER3 ECD peptide identified [1, 5] | MHC class II promiscuity (HLA-DR, DP, DQ) | reactivity of CD4+ T cells across donors (IFN-γ secretion) ([1]; listed as HER3(56-70)) | immunogenic CD4+ HER3 ECD peptide identified [1, 6] | reactivity of CD4+ T cells across donors (IFN-γ secretion) ([1]; listed as HER3(401-415)) | reactivity of CD4+ T cells across donors (IFN-γ secretion) ([1]; listed as HER3(416-430))
1 | AGRIYISANRQLCYH [HER3451-465, HER3 ECD MHC class II immunogenic peptide, positions 451-465] | react across most donors | reproducibly identified | ✓ | ✓ | ✓ | ✓ | promiscuous across HLA-DR, DP, and DQ subtypes |  |  |  | 
2 | CEVVMGNLEIVLTGH [HER356-70, HER3 ECD MHC class II immunogenic peptide, positions 56-70] | react across most donors |  | ✓ |  | ✓ | ✓ | promiscuous across HLA-DR, DP, and DQ subtypes | reproducibly identified | ✓ |  | 
3 | SWPPHMHNFSVFSNL [HER3401-415, HER3 ECD MHC class II immunogenic peptide, positions 401-415] | react across most donors |  | ✓ |  |  | ✓ | promiscuous across HLA-DR, DP, and DQ subtypes |  | ✓ | reproducibly identified | 
4 | TTIGGRSLYNRGFSL [HER3416-430, HER3 ECD MHC class II immunogenic peptide, positions 416-430] | react across most donors |  | ✓ | ✓ |  | ✓ | promiscuous across HLA-DR, DP, and DQ subtypes |  | ✓ |  | reproducibly identified
